The source of these data is publication PMC8015229, “Focus on Human Monoamine Transporter Selectivity. New Human DAT and NET Models, Experimental Validation, and SERT Affinity Exploration” (ACS Chemical Neuroscience, 2020).

Data set [1] concerns the target T1, NET (Oryctolagus cuniculus, UniProt G1TDF9).
T1 construct: tissue Charles River Laboratories, Inc. (animals); host or cells: cerebral cortex of New Zealand White rabbit
The data set is described as follows: [3H]nisoxetine binding assay to rabbit cortical membranes. The method, then: This washing procedure was repeated twice. The resulting pellet was immediately used in the binding assay or frozen at −80 °C until the time of the assay.
Incubation was carried out at 4 °C for 4 h.

Data set [2] addresses T2, DAT (Oryctolagus cuniculus, UniProt Z9V7K4Q734). The data set can be described thus: [3H]WIN 35,428 binding assay to rabbit striatal membranes. The conditions noted are these: mean ± SE of three or more experiments, tested as hydrochloride salts. The method, then:
(§1) Membranes used in DAT and SERT binding assays were prepared from frozen rabbit striatum and frontal cortex as previously described.[29]
DAT binding assays were performed using 2 nM [^3H]WIN 35,428 (specificity activity, 84.5 Ci mmol^–1; PerkinElmer Life Science) as previously described by Nencetti et al.[29]

The target in data set [3] is T3, SERT (Homo sapiens, UniProt P31645). The data set can be described thus: [3H]5-HT uptake to human platelets.
The target of data set [4] is T2, DAT. The settings on record: rabbit striatal membranes; tested as hydrochloride salts; read-out: [3H]-WIN 35,428, Ki; cited from earlier work.
Data set [5] concerns the target T3, SERT. The data set is described as follows: [3H]paroxetine binding assay to human platelet membranes.
In data set [6] the target is T4, SERT (Oryctolagus cuniculus, UniProt A0A5F9CLU6). The data set is described as follows: [3H]paroxetine binding assay to rabbit cortical membranes. The procedure:
as §1

Data set [7] concerns the target T4, SERT. The conditions noted are these: rabbit cortical membranes; tested as hydrochloride salts; cited from earlier work.
Data set [8] deals with T1, NET. The settings on record: read-out: [3H]nisoxetine, Ki; rabbit cortical membranes; cited from earlier work.
For data set [9], the target named is NET. The settings on record: cited from earlier work.
Data set [10] addresses DAT. The conditions noted are these: binding affinity for human transporters; cited from earlier work.
The target in data set [11] is NET. The conditions noted are these: binding affinity for rat transporter; cited from earlier work.
For data set [12], the target named is T3, SERT. The conditions noted are these: cited from earlier work.
Data set [13] addresses SERT. The settings on record: binding affinity for rat transporter; cited from earlier work.
Setting [14] is: rabbit cortical membranes, tested as hydrochloride salts.
Setting [15] is: binding affinity for human transporters.

Where two headings read alike, the source gives them in different places.

T4 sequence (A0A5F9CLU6 1-628): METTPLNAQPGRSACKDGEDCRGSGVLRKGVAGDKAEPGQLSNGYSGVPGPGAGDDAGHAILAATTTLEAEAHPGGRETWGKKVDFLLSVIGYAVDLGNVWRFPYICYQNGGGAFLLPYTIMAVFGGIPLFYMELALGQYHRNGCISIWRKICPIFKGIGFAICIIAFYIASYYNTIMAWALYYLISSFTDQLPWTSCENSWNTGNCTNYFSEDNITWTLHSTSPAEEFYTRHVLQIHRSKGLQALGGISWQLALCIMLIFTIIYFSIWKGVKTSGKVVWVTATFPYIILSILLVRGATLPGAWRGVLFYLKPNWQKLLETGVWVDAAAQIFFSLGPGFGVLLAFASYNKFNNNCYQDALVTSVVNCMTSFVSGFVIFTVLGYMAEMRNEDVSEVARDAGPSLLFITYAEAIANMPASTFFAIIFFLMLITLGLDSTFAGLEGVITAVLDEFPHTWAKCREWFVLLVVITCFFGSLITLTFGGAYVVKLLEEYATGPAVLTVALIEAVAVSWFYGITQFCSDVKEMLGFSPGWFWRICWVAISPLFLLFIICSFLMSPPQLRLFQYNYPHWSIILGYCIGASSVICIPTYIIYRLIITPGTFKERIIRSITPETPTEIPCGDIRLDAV
T2 sequence (Z9V7K4Q734 1-627): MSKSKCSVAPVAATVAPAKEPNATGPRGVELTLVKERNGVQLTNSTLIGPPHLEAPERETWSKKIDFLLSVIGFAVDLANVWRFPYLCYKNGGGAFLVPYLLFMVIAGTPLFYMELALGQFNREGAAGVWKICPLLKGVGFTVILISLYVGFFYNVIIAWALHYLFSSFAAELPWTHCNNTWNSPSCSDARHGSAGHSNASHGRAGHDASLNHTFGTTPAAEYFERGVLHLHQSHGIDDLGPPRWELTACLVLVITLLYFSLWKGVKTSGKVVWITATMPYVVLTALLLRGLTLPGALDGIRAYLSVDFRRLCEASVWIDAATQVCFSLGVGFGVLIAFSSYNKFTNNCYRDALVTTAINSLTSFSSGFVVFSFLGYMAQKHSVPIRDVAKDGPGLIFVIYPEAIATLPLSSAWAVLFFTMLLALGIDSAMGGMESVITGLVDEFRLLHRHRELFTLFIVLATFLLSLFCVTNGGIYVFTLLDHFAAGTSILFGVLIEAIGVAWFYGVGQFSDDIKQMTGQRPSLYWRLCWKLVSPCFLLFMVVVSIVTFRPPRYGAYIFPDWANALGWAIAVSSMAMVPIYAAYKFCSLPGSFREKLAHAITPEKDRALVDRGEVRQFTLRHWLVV
T1 sequence (G1TDF9 1-617): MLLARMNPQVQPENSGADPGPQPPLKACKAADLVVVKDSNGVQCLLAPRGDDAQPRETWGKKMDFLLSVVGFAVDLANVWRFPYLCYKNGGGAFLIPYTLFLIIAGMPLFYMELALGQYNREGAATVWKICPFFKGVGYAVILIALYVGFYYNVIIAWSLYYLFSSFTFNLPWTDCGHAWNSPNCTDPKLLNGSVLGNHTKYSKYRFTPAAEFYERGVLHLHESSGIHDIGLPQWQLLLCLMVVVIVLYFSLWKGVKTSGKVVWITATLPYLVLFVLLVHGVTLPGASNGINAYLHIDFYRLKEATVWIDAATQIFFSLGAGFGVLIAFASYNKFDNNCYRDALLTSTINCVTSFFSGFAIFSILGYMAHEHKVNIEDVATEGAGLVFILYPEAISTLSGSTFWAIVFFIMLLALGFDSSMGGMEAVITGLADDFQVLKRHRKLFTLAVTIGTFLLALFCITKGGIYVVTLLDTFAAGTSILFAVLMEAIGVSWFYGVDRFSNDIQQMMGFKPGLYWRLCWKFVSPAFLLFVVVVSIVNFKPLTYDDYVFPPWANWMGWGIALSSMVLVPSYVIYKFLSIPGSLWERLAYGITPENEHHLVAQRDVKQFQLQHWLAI
T3 sequence (P31645 whole entry): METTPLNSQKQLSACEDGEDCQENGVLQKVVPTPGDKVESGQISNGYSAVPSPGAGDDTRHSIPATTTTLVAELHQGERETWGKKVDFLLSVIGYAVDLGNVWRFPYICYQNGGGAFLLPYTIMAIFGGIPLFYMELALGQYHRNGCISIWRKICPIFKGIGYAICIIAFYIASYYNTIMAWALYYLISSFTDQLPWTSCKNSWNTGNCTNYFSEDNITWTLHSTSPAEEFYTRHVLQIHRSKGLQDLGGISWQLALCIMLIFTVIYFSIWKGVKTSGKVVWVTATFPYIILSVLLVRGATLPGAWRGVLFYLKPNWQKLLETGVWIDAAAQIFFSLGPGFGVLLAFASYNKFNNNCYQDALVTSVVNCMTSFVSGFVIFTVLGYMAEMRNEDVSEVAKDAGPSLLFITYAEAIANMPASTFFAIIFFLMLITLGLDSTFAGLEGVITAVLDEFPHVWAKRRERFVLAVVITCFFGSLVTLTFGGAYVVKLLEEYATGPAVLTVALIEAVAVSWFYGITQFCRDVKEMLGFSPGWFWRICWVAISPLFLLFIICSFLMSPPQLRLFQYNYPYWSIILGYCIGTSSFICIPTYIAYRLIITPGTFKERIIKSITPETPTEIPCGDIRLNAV

Take `Cl.Fc1ccc(COC2(c3ccc(F)cc3)CCNCC2)cc1` [20a, 4-((4-Fluorobenzyl)oxy)-4-(4-fluorophenyl)piperidine Hydrochloride]: the melting point (usually the temperature, or range, at which the solid turns liquid) lay in the range of 158 to 159 °C. The Ki – broadly, the dissociation constant of the complex between target and ligand, obtained from inhibition or displacement – on NET [1] (setting [14]) stood at 520 nM. Also, the Ki on DAT [2] is more than 100000 nM.
The corresponding values for `Cl.Fc1ccc(C2(OCc3ccccc3F)CCNCC2)cc1` [20c, 4-((2-Fluorobenzyl)oxy)-4-(4-fluorophenyl)piperidine Hydrochloride] are 202 °C, 400 nM and more than 100000 nM.
For `Cl.Fc1ccc(C2(OCc3ccc4c(c3)OCO4)CCNCC2)cc1` [20d, 4-(Benzo[D][1,3]dioxol-5-ylmethoxy)-4-(4-fluorophenyl)piperidine Hydrochloride], at SERT [3], the IC50 (usually the concentration at which inhibition is half-maximal) is 2.64 ± 0.3 nM. In addition, the Ki at SERT [3] was 1.75 nM; on NET [1] (setting [14]), 1740 nM; on DAT [4], more than 100000 nM; on SERT [5], 1.71 ± 0.15 nM. Moreover, the “potency as inhibitor of [3H]paroxetine binding relative to unlabeled paroxetine” value on SERT [6] is approximately 10 fold. Also, the “[3H]paroxetine, Ki” value at SERT [7] is “picomolar range”.
On to `Cl.Fc1ccc(COC2(c3ccc(C(F)(F)F)cc3)CCNCC2)cc1` [21a, 4-((4-Fluorobenzyl)oxy)-4-(4-(trifluoromethyl)phenyl)piperidine Hydrochloride], for which the melting point is 261 °C (dec.). In addition, at NET [1], the Ki was more than 10000 nM. Besides, the Ki at DAT [2] is more than 100000 nM.
The compound `Cl.FC(F)(F)c1ccc(COC2(c3ccc(C(F)(F)F)cc3)CCNCC2)cc1` [21b, 4-((4-(Trifluoromethyl)benzyl)oxy)-4-(4-(trifluoromethyl)phenyl)piperidine Hydrochloride] came in with a melting point of 189 to 190 °C. Further, at SERT [3], the IC50 is 4.2 ± 0.4 nM and the affinity corresponds to a Ki of 2.77 nM. At NET [1] (setting [14]), the Ki was more than 10000 nM. Besides, on DAT [4], the Ki is more than 100000 nM. Besides, affinity at SERT [5] was put at a Ki of 5.6 ± 0.52 nM. On SERT [7], the “[3H]paroxetine, Ki” value was “picomolar range”.
As for `Cl.Fc1ccccc1COC1(c2ccc(C(F)(F)F)cc2)CCNCC1` [21c, 4-((2-Fluorobenzyl)oxy)-4-(4-(trifluoromethyl)phenyl)piperidine Hydrochloride], the melting point was 210 °C (dec.). In addition, on NET [1] (setting [14]), the Ki was 2070 nM. The Ki on DAT [2] stood at 11100 nM.
Consider `Cl.FC(F)(F)c1ccc(C2(OCc3ccc4c(c3)OCO4)CCNCC2)cc1` [21d, 4-(Benzo[d][1,3]dioxol-5-ylmethoxy)-4-(4-(trifluoromethyl)phenyl)piperidine Hydrochloride], for which the IC50 against SERT [3] came to 4.9 ± 0.5 nM. In addition, the Ki is 3.26 nM at SERT [3], 2450 nM at NET [1] (setting [14]), 11200 nM at DAT [4] and 8.72 ± 0.93 nM at SERT [5]. Moreover, the “[3H]paroxetine, Ki” value at SERT [7] is “picomolar range”.
Turning to `Fc1ccc([C@@H]2CCNC[C@H]2COc2ccc3c(c2)OCO3)cc1` [compound 1, paroxetine], on NET [8], the Ki is 80 ± 1 nM.
For `COc1ccc(OC[C@H]2CN(C)CC[C@@H]2c2ccccc2)cc1` [compound 4, femoxetine], the “NET pKi exp” value on NET [9] (setting [15]) is on record as 6.12. At DAT [10], the “DAT pKi exp” value is given as 5.7.
`CNCC[C@@H](Oc1ccccc1C)c1ccccc1` [compound 6, atomoxetine]: at DAT [10], the “DAT pKi exp” value was 5.8.
For the compound `CNCCC(Oc1ccccc1OC)c1ccccc1` (stereo not drawn) [compound 8, nisoxetine], the “NET pKi exp” value on NET [11] is 9.34.
As to `COC(=O)[C@H]1[C@@H](c2ccc(Cl)cc2)C[C@@H]2CC[C@H]1N2C` [compound 9, RTI-31], at NET [9], the “NET pKi exp” value is on record as 7.4. Further, on DAT [10], the “DAT pKi exp” value is 8.57.
On to `COC(=O)[C@H]1[C@@H](c2ccc(I)cc2)C[C@@H]2CC[C@H]1N2C` [compound 10, RTI-55], for which the “SERT pKi exp” value at SERT [12] was 8.4. For the same compound, the “NET pKi exp” value at NET [9] is 7.7. In addition, the “DAT pKi exp” value on DAT [10] is 8.41.
Consider `COCCCC/C(=N\OCCN)c1ccc(C(F)(F)F)cc1` [compound 11, fluvoxamine], for which the “DAT pKi exp” value on DAT [10] is on record as 5.03.
Regarding `c1ccc(CCCN2CCN(CCOC(c3ccccc3)c3ccccc3)CC2)cc1` [compound 13, GBR-12935], the “NET pKi exp” value on NET [9] (setting [15]) was 6.2.
As for `c1ccc2c(CCC3CCNCC3)c[nH]c2c1` [compound 14, indalpine], the “SERT pKi exp” value on SERT [12] (setting [15]) is 8.76. Also, the “NET pKi exp” value on NET [9] (setting [15]) is listed as 6.29. In addition, the “DAT pKi exp” value on DAT [10] is 6.
Take `CCOc1ccccc1OCC1CNCCO1` (stereo not drawn) [compound 16, viloxazine]: the “NET pKi exp” value at NET [9] is given as 6.81. On DAT [10], the “DAT pKi exp” value is listed as 5.
Regarding `CN1[C@H]2CC[C@@H]1[C@@H](C(=O)N1CCCC1)[C@@H](c1ccc(I)cc1)C2` [compound 17, RTI-229], the “SERT pKi exp” value at SERT [12] is reported as 6.8. For the same compound, the “NET pKi exp” value at NET [9] (setting [15]) is reported as 6.22.
Consider `CN(C)C/C=C(/c1ccc(Br)cc1)c1cccnc1` [compound 18, zimelidine], for which the “DAT pKi exp” value on DAT [10] is recorded as 4.93.
For the compound `CN1C2CCC1C(C(=O)Oc1ccccc1)C(c1ccc(Cl)cc1)C2` (stereo not drawn) [compound 19, RTI-113], the “SERT pKi exp” value on SERT [13] is 6.67. For the same compound, at NET [11], the “NET pKi exp” value is on record as 5.75.
Compound `Cl.Fc1ccc(C2(OCc3ccc(C(F)(F)F)cc3)CCNCC2)cc1` [compound 20b, 4-(4-Fluorophenyl)-4-((4-(trifluoromethyl)benzyl)oxy)piperidine Hydrochloride] showed a melting point of 184 to 185 °C. At SERT [3], this compound yielded an IC50 of 0.13 ± 0.01 nM and a Ki of 0.08 nM. Moreover, the “type of inhibition of [3H]5-HT uptake” value at SERT [3] (human platelets, Lineweaver-Burk plot, Vmax unchanged, Km changed) is “competitive”. Moreover, the Ki at NET [1] (setting [14]) is 10000 nM. Further, the Ki on DAT [4] is more than 100000 nM. The affinity at SERT [5] corresponds to a Ki of 0.17 ± 0.02 nM. On SERT [6], the “potency as inhibitor of [3H]paroxetine binding relative to unlabeled paroxetine” value is reported as approximately 10 fold. In addition, on SERT [7], the “[3H]paroxetine, Ki” value is reported as “picomolar range”.
